US20230124492A1, “COMPOSITIONS AND METHODS FOR SUBSTITUTED 7-(PIPERAZIN-1-YL)PYRAZOLO[1,5-A]PYRIMIDINE ANALOGS AS INHIBITORS OF KRAS” (The Board of Regents of the University of Texas System, priority 2019, published 2023)
Entries after “also recorded” stand apart in the source; their conditions may differ.

Legend:
[1] = target: GTP-KRAS (Homo sapiens, UniProt P01116); assay: Binding of lead compound to GTP-KRAS; settings: active GTP-bound KRAS
[2] = target: KRAS effector binding (Homo sapiens, UniProt P01116); assay: Effector (Raf) binding to KRAS; format: biochemical
[3] = test system: KRAS-mediated MAPK signaling; assay: KRAS-mediated MAPK signaling; format: cell-based
[4] = target: GTP-/GDP-bound NRAS (Homo sapiens, UniProt P01111); assay: Binding of lead compound to GTP-/GDP-bound NRAS
[5] = target: GTP-/GDP-bound HRAS (Homo sapiens, UniProt P01112); assay: Binding of lead compound to GTP-/GDP-bound HRAS
[6] = test system: cancer cells; assay: Proliferation of cancer cells; format: cell-based
[7] = target: KRAS (Homo sapiens, UniProt P01116, G12D); assay: Microscale thermophoresis (MST) binding affinity to KRAS (Table 1); settings: 100 nM labeled KRAS, read-out: kD (dissociation constant)
Protocol: Measurement of compound binding affinity to KKRAS using microscale thermophoresis (MST). MST is based on the movement of molecules in response to temperature gradient. […] KRAS was buffer-exchanged in the labeling buffer (40 mM HEPES, pH 7.5, 5 mM MgCl2, and 500 mM NaCl) using a spin column (provided in the kit) The concentration of the eluted protein was adjusted (10 to 20 μM) and 2-3 fold concentration of the dye (in labeling buffer) was added (200 μL final volume), The solution was incubated for 30 minutes at room temperature in the dark. Labeled KRAS was purified using the column provided in the kit or MST measurements, 16 point serial dilutions of ligands were made in MST Assay Buffer (40 mM HEPES, pH 7.5, 5 mM MgCl2, 100 mM NaCl+0.05% Tween-20+2-4% DMSO) and added to 100 nM KRAS. The solutions were loaded in capillaries and measurements were done using 20% LED power and 40% MST power. The data were fit in Igor Pro using Hill equation or the function in the instrument software.
Microscale thermophoresis (MST) assays were used to measure the affinity of lead compound analogs for KRAS. In a typical experiment, 100 nM KRAS labeled with a dye amine-reactive red NT-647 from NanoTemper) was mixed with different concentrations of ligand and incubated in a binding buffer (40 mM HEPES, pH 7.5, 5 mM MgCl2, 150 mM NaCl, 0.05% polysorbate 20, and 2% DMSO) at room temperature for 10 min before being loaded into a capillary. Thermophoresis is carried out and dissociation constant calculated by monitoring changes in fluorescence intensity. A monolith NT.115 Reader from NanoTemper can be used for MST experiments, with 40% MST and 20% LED power.
Dissociation constants (IQ)) calculated from the thermophoresis results of selected compounds according to the present disclosure are presented in Table 1 below.
Note: For FIGS. 1A-H 1 (as well as one of the curves in FIGS. 2A-I), dissociation constant (Kd) was determined using either Microscale Thermophoresis (MST) or Intrinsic Fluorescence (IF) assay. MST assay uses fluorescence to monitor movement of molecules in response to temperature gradient created by infrared laser.

[8] = target: GDP-KRAS (Homo sapiens, UniProt P01116); assay: Binding of lead compound to GDP-KRAS (inactive KRAS); settings: GDP-bound
Sequence of GDP-KRAS (P01116 1-188 isoform P01116-2): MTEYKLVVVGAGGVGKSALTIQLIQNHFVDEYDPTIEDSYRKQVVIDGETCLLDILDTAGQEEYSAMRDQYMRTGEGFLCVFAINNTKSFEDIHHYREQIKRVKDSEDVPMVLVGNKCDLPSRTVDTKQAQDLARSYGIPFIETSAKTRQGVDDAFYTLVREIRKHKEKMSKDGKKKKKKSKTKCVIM

Sequence of GTP-/GDP-bound NRAS (P01111 whole entry): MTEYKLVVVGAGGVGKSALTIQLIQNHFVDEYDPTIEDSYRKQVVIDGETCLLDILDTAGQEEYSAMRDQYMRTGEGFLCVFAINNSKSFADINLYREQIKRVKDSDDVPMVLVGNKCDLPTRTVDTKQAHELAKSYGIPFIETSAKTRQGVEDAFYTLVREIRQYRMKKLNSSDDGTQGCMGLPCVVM
Sequence of KRAS effector binding (P01116 1-188 isoform P01116-2): as the sequence (P01116 1-188 isoform P01116-2) above
Sequence of GTP-KRAS (P01116 1-188 isoform P01116-2): as above
Sequence of GTP-/GDP-bound HRAS (P01112 whole entry): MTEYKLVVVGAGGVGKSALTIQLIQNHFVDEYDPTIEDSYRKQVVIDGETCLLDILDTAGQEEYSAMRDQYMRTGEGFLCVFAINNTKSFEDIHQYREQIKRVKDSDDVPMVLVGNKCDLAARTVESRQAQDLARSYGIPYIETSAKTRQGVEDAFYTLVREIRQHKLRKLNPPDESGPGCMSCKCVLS
Sequence of KRAS (P01116 whole entry G12D): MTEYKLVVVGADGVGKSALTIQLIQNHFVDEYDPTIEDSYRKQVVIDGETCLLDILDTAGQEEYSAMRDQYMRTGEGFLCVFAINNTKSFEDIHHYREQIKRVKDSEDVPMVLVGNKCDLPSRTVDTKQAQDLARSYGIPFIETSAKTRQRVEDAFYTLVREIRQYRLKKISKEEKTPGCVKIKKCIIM

Cc1nn2c(N3CCN(CCO)CC3)cc(-c3ccccc3)nc2c1-c1ccccc1 [Compound C1]
Affinity for GTP-KRAS [1]: sub micromolar affinity; also recorded: high affinity | Effect on effector binding [2]: significantly reduces; also recorded: disrupt | Effect on KRAS-mediated MAPK signaling / signal transduction through KRAS [3]: inhibits; also recorded: reduce | Affinity for GTP-/GDP-bound NRAS [4]: much weaker affinity; also recorded: does not bind | Affinity for GTP-/GDP-bound HRAS [5]: much weaker affinity; also recorded: does not bind | Effect on proliferation of cancer cells [6]: inhibit | Kd [7]: 0.87 ± 0.18 µM | Affinity for GDP-KRAS (inactive KRAS) [8]: much weaker affinity; also recorded: does not bind
